The results in this text go back to PubChem BioAssay (NCI).

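In this assay, cells in 96-well plates receive the compound at five concentrations for 48 hours. Endpoints are linearly interpolated between the surrounding concentrations. GI50 = concentration required for 50% inhibition of growth. At the TGI there is no net growth.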

Some test systems named below: K-562 leukemia; HT29 colon; T-47D breast; PC-3 prostate; BT-549 breast; U251 CNS; CAKI-1 renal; UACC-62 melanoma; NCI-H460 lung; NCI-H23 lung.
Holding throughout (assay): NCI-60 cell line screen, 48 h

With `CCOC(=O)c1cn2ncnc(Oc3ccc(NC(=O)NCCN(CC)CC)c(Cl)c3)c2c1C`, the GI50 in the assay on K-562 leukemia is 2.01 µM; with HT29 colon, 2.26 µM; in the assay with T-47D breast it was 2.77 µM; with PC-3 prostate, 3.22 µM; in the assay on BT-549 breast, 4.96 µM; in the assay with U251 CNS it was 2.38 µM. Moreover, the GI50 is 1.9 µM in the assay on CAKI-1 renal, 1.95 µM with UACC-62 melanoma, 9.1 µM with NCI-H460 lung and 10.4 µM in the assay with NCI-H23 lung. Moreover, the TGI with K-562 leukemia came to 4.48 µM; in the assay with HT29 colon, 5.45 µM; in the assay on T-47D breast, 8.72 µM; with PC-3 prostate, 15 µM; with BT-549 breast it was 19.5 µM; with U251 CNS it was 6.24 µM. For the same compound, the TGI in the assay on CAKI-1 renal amounted to 3.82 µM; with UACC-62 melanoma, 3.72 µM; with NCI-H460 lung, 24.4 µM; in the assay on NCI-H23 lung, 26 µM.

With `O=C1/C(=C/c2ccc(C(F)(F)F)cc2)COc2ccc(O)cc21`, the GI50 is 2.03 µM in the assay on HT29 colon; 2.03 µM with T-47D breast; 1.89 µM in the assay with PC-3 prostate; 4.29 µM in the assay on BT-549 breast; 1.66 µM in the assay with U251 CNS; 1.74 µM with CAKI-1 renal. In addition, the GI50 with UACC-62 melanoma is 2.36 µM; in the assay on NCI-H460 lung it was 3.24 µM; in the assay with NCI-H23 lung it was 2.14 µM. Further, the TGI was 4.32 µM in the assay with HT29 colon; 4.76 µM with T-47D breast; 4.17 µM in the assay on PC-3 prostate; 15.5 µM in the assay with BT-549 breast; 3.06 µM with U251 CNS; 3.85 µM with CAKI-1 renal. Further, the TGI in the assay with UACC-62 melanoma was found to be 6.84 µM; with NCI-H460 lung it was 10.4 µM; in the assay with NCI-H23 lung, 5.38 µM.

For the compound `Cc1cc(Cl)ccc1Nc1nc(C(F)(F)F)ccc1C(=O)N/N=C/c1ccc(N(C)C)cc1`, the GI50 was 1.93 µM in the assay with K-562 leukemia; 3.8 µM in the assay with HT29 colon; 1.2 µM in the assay with T-47D breast; 0.624 µM in the assay with BT-549 breast; 1.42 µM with U251 CNS; 0.404 µM with CAKI-1 renal. Further, the GI50 in the assay on UACC-62 melanoma is 2.29 µM; in the assay with NCI-H460 lung, 1.57 µM; in the assay on NCI-H23 lung, 3.92 µM. For the same compound, the TGI in the assay on K-562 leukemia was over 100 µM; with HT29 colon it was over 100 µM; in the assay with T-47D breast it was over 100 µM; with BT-549 breast it was 6.78 µM; in the assay with U251 CNS it was over 100 µM; with CAKI-1 renal it was 8.52 µM. The TGI in the assay with UACC-62 melanoma, in the assay with NCI-H460 lung and in the assay on NCI-H23 lung was over 100 µM each time.

In the case of `CCN1CCN(c2nc(C)cc(N(CCCNc3ccnc4cc(Cl)ccc34)Cc3ccco3)n2)CC1`, the GI50 in the assay on K-562 leukemia is 2.3 µM; in the assay with HT29 colon it was 2.35 µM; in the assay with T-47D breast it was 1.97 µM; in the assay on PC-3 prostate, 6.87 µM; with BT-549 breast it was 2.03 µM; in the assay with U251 CNS, 2.41 µM. The GI50 in the assay with UACC-62 melanoma was 1.97 µM; with NCI-H460 lung, 3.73 µM; with NCI-H23 lung, 9.9 µM. The TGI in the assay with K-562 leukemia is 10.4 µM; in the assay with HT29 colon, 8.72 µM; with T-47D breast, 5.55 µM; with PC-3 prostate it was 22 µM; in the assay on BT-549 breast, 5.99 µM; with U251 CNS, 6.26 µM. Also, the results for the TGI in the assay with UACC-62 melanoma, in the assay on NCI-H460 lung and in the assay with NCI-H23 lung were 3.97 µM, 12.9 µM and 27 µM, respectively.

Take `COc1ccc(CC(C#N)c2cc(OC)c(OC)c(OC)c2)cc1` (stereo unspecified): the TGI is over 47.4 µM in the assay on K-562 leukemia; 5.72 µM in the assay with HT29 colon; over 100 µM with PC-3 prostate; over 100 µM in the assay on BT-549 breast; 6.32 µM in the assay with U251 CNS; over 81 µM in the assay with CAKI-1 renal. Moreover, the TGI is over 100 µM in the assay on UACC-62 melanoma, 21 µM in the assay on NCI-H460 lung and 1.96 µM in the assay on NCI-H23 lung.

In the case of `COC(=O)c1cccc2c1Oc1ccccc1S2`, the TGI in the assay with K-562 leukemia was over 100 µM; with HT29 colon, 75.2 µM; in the assay on T-47D breast it was over 100 µM; in the assay on PC-3 prostate it was over 100 µM; in the assay with BT-549 breast it was over 100 µM; in the assay with U251 CNS, over 100 µM. The TGI in the assay with CAKI-1 renal is 65.1 µM; with UACC-62 melanoma, over 100 µM; in the assay with NCI-H460 lung it was over 100 µM.

`Cc1ccc2oc(=O)cc(C3c4ccc([nH]4)C(c4cc(=O)oc5ccc(C)cc45)c4ccc([nH]4)C(c4cc(=O)oc5ccc(C)cc45)c4ccc([nH]4)C(c4cc(=O)oc5ccc(C)cc45)c4ccc3[nH]4)c2c1` (stereo unspecified): the GI50 in the assay on HT29 colon is 0.0347 µM; with T-47D breast, 0.0434 µM; in the assay with PC-3 prostate it was 0.0366 µM; with BT-549 breast, 0.0299 µM; in the assay with U251 CNS, 0.0369 µM; in the assay with CAKI-1 renal, 0.0806 µM. Moreover, the values for the GI50 in the assay on UACC-62 melanoma, in the assay on NCI-H460 lung and with NCI-H23 lung were 0.0324 µM, 0.0375 µM and 0.0574 µM, respectively. The TGI in the assay with HT29 colon turned out to be 0.108 µM; in the assay with T-47D breast, 2.99 µM; in the assay on PC-3 prostate it was 1.94 µM; with BT-549 breast, 0.183 µM; in the assay on U251 CNS, 1.27 µM; with CAKI-1 renal, 1.79 µM. For the same compound, the TGI came to 0.8 µM in the assay on UACC-62 melanoma, 0.656 µM with NCI-H460 lung and 1.58 µM in the assay on NCI-H23 lung.

Consider `CC1(C)CC(O)CCCCCCOc2c(CN)cccc2NC(=O)c2nc(cnc2N)-c2ccc(cc2)S1(=O)=O` (stereo unspecified), for which the GI50 with K-562 leukemia is 0.0538 µM; in the assay on HT29 colon, 0.309 µM; with T-47D breast it was 1.67 µM; in the assay with PC-3 prostate it was 0.543 µM; with BT-549 breast, 1.25 µM; with U251 CNS, 0.382 µM. Besides, the values for the GI50 in the assay with CAKI-1 renal, in the assay with UACC-62 melanoma and with NCI-H460 lung were 1.15 µM, 1.67 µM and under 0.0192 µM, respectively. The TGI stood at 2.69 µM with K-562 leukemia; 3.75 µM in the assay with HT29 colon; 4.15 µM in the assay with T-47D breast; 3.67 µM in the assay on PC-3 prostate; 2.85 µM in the assay with BT-549 breast; 1.86 µM with U251 CNS. The TGI in the assay with CAKI-1 renal came out at 2.6 µM; with UACC-62 melanoma, 3.3 µM; in the assay with NCI-H460 lung, 2.31 µM.

Regarding `C#CCOc1cccc(Nc2ncnc3c2ncn3C2CCN(C(=O)CCl)C2)c1` (stereo unspecified), the GI50 in the assay on K-562 leukemia was 25.7 µM; with HT29 colon, 19.4 µM; in the assay with PC-3 prostate it was 22.6 µM; with BT-549 breast, 12.1 µM; in the assay with U251 CNS it was 18.1 µM; in the assay on CAKI-1 renal, 16.8 µM. Also, the GI50 in the assay with UACC-62 melanoma was 18.1 µM; in the assay with NCI-H460 lung it was 43.2 µM; with NCI-H23 lung, 18.4 µM. The TGI with K-562 leukemia was over 100 µM; in the assay with HT29 colon it was 37.4 µM; in the assay on PC-3 prostate it was 53 µM; in the assay on BT-549 breast, 26.6 µM; in the assay with U251 CNS, 35.1 µM; in the assay on CAKI-1 renal it was 30.7 µM. For the same compound, the TGI in the assay with UACC-62 melanoma was 35.4 µM; in the assay on NCI-H460 lung, over 100 µM; in the assay with NCI-H23 lung, 41.3 µM.
